# Measurements as given in publication PMC11844072, “Novel 5,6-dichlorobenzimidazole derivatives as dual BRAFWT and BRAFV600E inhibitors: design, synthesis, anti-cancer activity and molecular dynamics simulations” (BMC Chemistry, 2025).
# Assays:
# HSF cell line = assay: Cytotoxicity on HSF normal cell line (SRB assay); format: cell-based; conditions: HSF normal human skin fibroblast; mean of three ± SD
# Method: The dichlorobenzimidazole derivative 10h was tested in Nawah scientific—Cairo—Egypt for its cytotoxic activity on HSF cell line as stated in the Additional file A [53, 54].
# 6. Analysis of 10h on HSF normal cell line
# Human Skin Fibroblast (HSF) was obtained from Nawah Scientific Inc., (Mokatam, Cairo, Egypt). Cells were maintained in DMEM media supplemented with […] of streptomycin, 100 units/mL of penicillin and 10% of heat-inactivated fetal bovine serum in humidified, 5% (v/v) CO2atmosphere at 37 °C. Cell viability was assessed by SRB assay. Aliquots of 100 μL cell suspension (5x10^3 cells) were in 96-well plates and incubated in complete media for 24 h. Cells were treated with another aliquot of 100 μL media containing drugs at various concentrations.
# After drug exposure, cells were fixed by replacing media with 150 μL of 10% TCA and incubated at 4 °C for 1 h. The TCA solution was removed, and the cells were washed 5 times with distilled water. Aliquots of 70 μL SRB solution (0.4% w/v) were added and incubated in a dark place at room temperature for 10 min. Plates were washed 3 times with 1% acetic acid and allowed to air-dry overnight. Then, 150 μL of TRIS (10 mM) was added to dissolve protein-bound SRB stain; the absorbance was measured at 540 nm using an Infinite F50 microplate reader (TECAN, Switzerland).
# 6.2. Dose response curve of 10h on HSF normal cell line
# Figure 66. […]
# HT29 cell line = assay: Cell cycle analysis (PI flow cytometry); format: cell-based, human
# Method: 7. Analysis of cell cycle distribution
# HT29: Colon Cancer was obtained from Nawah Scientific Inc., (Mokatam, Cairo, Egypt). Cells were maintained in DMEM media supplemented with […] of streptomycin, 100 units/mL of penicillin and 10% of heat-inactivated fetal bovine serum in humidified, 5% (v/v) CO 2 atmosphere at 37 °C. After treatment with test compound 8m for 48h, cells (10^5 cells) are collected by trypsinization and washed twice with ice-cold PBS (pH 7.4). Cells are re-suspended in two milliliters of 60% ice-cold ethanol and incubated at 4 °C for 1h for fixation. Fixed cells are washed twice again with PBS (pH 7.4) and re-suspended in 1 mL of PBS containing 50 μg/mL RNAase A and 10 μg/mL propidium iodide (PI). After 20 min of incubation in dark at 37 °C, cells are analyzed for DNA contents using flow cytometry analysis using FL2 (λex/em 535/617 nm) signal detector (ACEA Novocyte™ flowcytometer, ACEA Biosciences Inc., San Diego, CA, USA). For each sample, 12,000 events are acquired. Cell cycle distribution is calculated using ACEA NovoExpress™ software (ACEA Biosciences Inc., San Diego, CA, USA). […]
# FGFR-1 = FGFR-1 (Homo sapiens, UniProt P11362); assay: FGFR-1 kinase assay (Kinase-Glo Max luminescence)
# Method: (§1) The inhibitory activity against different kinases was determined using kinase kits (BRAF WT
# (§2) Glo Max luminescence kinase assay kit (Promega).
# (§3) The assay was carried out according to the protocol provided by the manufacturer. A stock solution of the synthesized derivatives in 100% DMSO was prepared. Subsequently, the compounds were diluted to 10% DMSO.
# (§4) A master mixture was prepared according to the number of wells. For BRAF assay each well include 6 μl of 5x Kinase Buffer 1 + 1 μl of ATP (500 μM) + 10 μl of 5X Raf substrate + 8 μl of distilled water. 1x Kinase buffer 1 was prepared by mixing 600 μl of 5x Kinase Buffer 1 with 2400 μl water to give 3 mL. Kinases were thawed on ice and were diluted with 1x Kinase Buffer 1. […]
# (§5) The plate was incubated at 30 °C for 45 min. Subsequently, 50 μl of Kinase-Glo Max luminescence reagent was added to each well and the plate was covered with aluminum foil and incubated at room temperature for 15 min. Finally, the luminescence was recorded using multimode microplate reader. […]
# (§6) The luminescence data were analyzed as follows. The difference between luminescence intensities in the absence of kinase (Lu t) and in the presence of kinase (Lu c) was defined as 100 %
# (§7) calculated as: % activity = {(Lu t - Lu)/(Lut - Luc)} ×100%. The concentration of the test compounds required to reduce the kinase activity by 50% was determined from dose-response curves and
# VEGFR-2 = VEGFR-2 (Homo sapiens, UniProt P35968); assay: VEGFR-2 kinase assay (Kinase-Glo Max luminescence)
# Method: as §1, §2, §3, §4, §5, §6, §7
# BRAFV600E = BRAFV600E (Homo sapiens, UniProt P15056, V600E); assay: BRAFV600E kinase assay kit (Kinase-Glo Max luminescence)
# Method: as §1, §2, §3, §4, §5, §6, §7
# [1] = HT29, 10h at its GI50 concentration, 48h
# BRAFV600E, sequence (P15056 whole entry V600E): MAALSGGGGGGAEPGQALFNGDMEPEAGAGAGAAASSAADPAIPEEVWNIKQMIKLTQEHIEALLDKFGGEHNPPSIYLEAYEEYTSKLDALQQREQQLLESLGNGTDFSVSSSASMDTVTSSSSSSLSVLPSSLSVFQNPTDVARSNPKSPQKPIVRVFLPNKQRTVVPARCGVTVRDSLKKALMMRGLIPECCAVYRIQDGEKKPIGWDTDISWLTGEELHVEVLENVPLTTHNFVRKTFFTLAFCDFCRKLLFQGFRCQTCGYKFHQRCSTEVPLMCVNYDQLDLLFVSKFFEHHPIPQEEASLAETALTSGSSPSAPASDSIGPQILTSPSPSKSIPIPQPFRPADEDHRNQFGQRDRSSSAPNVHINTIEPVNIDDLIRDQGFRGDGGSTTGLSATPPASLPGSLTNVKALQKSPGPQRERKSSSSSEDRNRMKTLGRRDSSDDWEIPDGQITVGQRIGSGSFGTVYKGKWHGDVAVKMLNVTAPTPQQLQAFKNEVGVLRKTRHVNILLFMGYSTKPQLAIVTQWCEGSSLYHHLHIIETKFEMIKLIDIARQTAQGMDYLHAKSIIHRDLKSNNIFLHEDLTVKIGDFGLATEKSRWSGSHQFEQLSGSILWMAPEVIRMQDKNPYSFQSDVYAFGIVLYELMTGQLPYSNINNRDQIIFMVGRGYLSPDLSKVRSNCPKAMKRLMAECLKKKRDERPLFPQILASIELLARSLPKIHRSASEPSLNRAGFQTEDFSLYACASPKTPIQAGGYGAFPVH
# VEGFR-2, sequence (P35968 20-1356): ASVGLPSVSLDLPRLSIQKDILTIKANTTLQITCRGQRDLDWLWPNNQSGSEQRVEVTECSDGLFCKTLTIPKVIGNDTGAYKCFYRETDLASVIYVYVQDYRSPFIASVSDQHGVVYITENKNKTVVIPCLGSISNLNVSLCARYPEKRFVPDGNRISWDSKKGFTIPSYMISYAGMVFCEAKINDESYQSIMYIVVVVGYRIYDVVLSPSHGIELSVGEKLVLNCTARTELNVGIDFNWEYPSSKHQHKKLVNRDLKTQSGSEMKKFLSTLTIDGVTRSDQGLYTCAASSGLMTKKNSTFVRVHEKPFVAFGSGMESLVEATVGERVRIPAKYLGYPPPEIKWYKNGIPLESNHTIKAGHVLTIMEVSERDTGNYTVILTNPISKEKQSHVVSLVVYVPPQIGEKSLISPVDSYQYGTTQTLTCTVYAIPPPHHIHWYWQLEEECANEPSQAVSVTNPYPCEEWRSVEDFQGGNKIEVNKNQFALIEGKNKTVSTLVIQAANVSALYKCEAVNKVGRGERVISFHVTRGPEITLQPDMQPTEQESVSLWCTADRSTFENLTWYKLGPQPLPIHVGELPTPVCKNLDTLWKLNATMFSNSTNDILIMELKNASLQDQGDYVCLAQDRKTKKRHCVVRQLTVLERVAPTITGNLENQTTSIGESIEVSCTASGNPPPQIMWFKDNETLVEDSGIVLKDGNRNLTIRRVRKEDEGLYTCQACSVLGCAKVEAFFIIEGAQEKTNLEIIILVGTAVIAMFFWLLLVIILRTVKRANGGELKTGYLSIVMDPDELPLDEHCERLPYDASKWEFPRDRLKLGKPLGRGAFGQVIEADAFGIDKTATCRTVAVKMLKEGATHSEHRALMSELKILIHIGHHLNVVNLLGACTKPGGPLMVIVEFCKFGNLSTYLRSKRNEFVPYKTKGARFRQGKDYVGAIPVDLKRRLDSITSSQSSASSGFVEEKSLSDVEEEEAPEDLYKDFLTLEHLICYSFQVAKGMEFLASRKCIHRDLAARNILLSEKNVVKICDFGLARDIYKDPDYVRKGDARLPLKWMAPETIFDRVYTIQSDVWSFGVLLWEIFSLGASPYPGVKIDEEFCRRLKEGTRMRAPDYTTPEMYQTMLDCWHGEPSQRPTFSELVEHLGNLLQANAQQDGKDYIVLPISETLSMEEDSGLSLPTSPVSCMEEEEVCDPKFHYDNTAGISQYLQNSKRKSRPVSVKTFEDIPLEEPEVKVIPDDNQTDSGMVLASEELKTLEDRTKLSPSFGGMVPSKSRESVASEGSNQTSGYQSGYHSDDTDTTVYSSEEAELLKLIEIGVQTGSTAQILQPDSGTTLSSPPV
# FGFR-1, sequence (P11362 22-822): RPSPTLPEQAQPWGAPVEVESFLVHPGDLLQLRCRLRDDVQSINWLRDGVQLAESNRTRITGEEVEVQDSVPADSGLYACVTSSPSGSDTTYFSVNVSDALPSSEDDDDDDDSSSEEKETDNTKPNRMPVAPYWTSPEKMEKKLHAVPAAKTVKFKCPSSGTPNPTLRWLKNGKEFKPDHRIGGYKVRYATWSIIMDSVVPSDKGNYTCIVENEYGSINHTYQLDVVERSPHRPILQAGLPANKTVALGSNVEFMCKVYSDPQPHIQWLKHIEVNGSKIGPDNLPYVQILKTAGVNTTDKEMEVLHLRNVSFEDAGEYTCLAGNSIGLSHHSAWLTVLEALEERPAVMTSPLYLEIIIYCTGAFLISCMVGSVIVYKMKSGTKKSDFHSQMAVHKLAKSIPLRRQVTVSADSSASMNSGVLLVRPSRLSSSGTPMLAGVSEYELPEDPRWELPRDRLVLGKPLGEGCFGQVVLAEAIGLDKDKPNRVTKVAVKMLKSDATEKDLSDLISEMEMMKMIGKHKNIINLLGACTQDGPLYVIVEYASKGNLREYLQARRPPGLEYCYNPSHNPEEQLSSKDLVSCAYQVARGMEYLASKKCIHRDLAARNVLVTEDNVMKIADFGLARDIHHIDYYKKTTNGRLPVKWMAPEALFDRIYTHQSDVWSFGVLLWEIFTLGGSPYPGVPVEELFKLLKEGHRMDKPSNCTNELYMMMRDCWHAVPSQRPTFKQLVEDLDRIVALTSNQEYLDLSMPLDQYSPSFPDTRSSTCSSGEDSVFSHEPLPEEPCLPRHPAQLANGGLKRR
smiles,measurement,setting,value
"COC(=O)COc1ccc(C=NNC(=O)Cn2c(-c3ccc(OC)cc3)nc3cc(Cl)c(Cl)cc32)cc1 [Compound 10h, Methyl-2-(4-((2-(2-(5,6-dichloro-2-(4-methoxyphenyl)-1H-benzo[d]imidazol-1-yl)acetyl)hydrazono)methyl)phenoxy)acetate]",IC50,HSF cell line,> 100000 nM
same,%G0/G1,HT29 cell line; [1],62.69%
same,%G2/M,HT29 cell line; [1],19.26%
same,%S,HT29 cell line; [1],18.04%
same,%Sub-G1,HT29 cell line; [1],10.45%
same,effect on cell cycle progression,HT29 cell line; HT29 colon cancer cell line,arrested cell cycle progression in HT29 colon cancer cell line at G2/M phase
same,IC50,FGFR-1,> 10000 nM
same,IC50,VEGFR-2,1520 ± 140 nM
same,IC50,BRAFV600E,2760 ± 150 nM
